Structures are written as SMILES. Where two headings read alike, the source gives them in different places.

The values that follow come from publication PMC7583931 (International Journal of Molecular Sciences, 2020).

Test [1] has as its target T1, Human BBOX (γ-butyrobetaine hydroxylase) (Homo sapiens, UniProt O75936).
T1 construct: gene BBOX1; human recombinant enzyme
T1 sequence (O75936 1-387): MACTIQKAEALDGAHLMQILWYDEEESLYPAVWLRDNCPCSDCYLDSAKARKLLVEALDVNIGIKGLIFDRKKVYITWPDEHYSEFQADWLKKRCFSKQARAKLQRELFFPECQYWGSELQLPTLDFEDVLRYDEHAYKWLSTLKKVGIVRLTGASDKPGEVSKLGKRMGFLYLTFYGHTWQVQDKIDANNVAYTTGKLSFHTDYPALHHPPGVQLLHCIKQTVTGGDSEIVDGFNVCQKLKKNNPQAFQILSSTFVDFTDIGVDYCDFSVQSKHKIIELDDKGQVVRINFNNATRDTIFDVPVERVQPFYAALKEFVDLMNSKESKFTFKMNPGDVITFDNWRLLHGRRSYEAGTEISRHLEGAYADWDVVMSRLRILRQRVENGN
Nature of the test: carnitine formation from gamma-butyrobetaine by UPLC/MS/MS. The test is classed as biochemical. The source says:
carnitine formation from gamma-butyrobetaine by UPLC/MS/MS on Human BBOX (γ-butyrobetaine hydroxylase)

Test [2] concerns the target T2, hOCTN2 (carnitine/organic cation transporter OCTN2, SLC22A5) (Homo sapiens, UniProt O76082).
T2 sequence (O76082 1-557): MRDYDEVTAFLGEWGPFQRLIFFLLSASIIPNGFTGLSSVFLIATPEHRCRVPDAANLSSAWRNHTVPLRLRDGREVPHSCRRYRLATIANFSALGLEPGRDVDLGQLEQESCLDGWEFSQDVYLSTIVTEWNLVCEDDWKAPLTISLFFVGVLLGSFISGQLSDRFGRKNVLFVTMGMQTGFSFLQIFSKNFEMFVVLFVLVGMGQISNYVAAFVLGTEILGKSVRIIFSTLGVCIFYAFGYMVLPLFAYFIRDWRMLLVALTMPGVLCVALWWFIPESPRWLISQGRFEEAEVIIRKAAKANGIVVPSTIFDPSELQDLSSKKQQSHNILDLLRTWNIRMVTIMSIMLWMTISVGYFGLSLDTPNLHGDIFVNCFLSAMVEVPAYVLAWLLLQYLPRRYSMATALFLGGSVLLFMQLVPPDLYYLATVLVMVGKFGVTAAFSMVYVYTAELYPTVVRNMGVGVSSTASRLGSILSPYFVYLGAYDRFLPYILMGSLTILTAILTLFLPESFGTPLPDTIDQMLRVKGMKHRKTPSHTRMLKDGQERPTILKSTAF
Put plainly: inhibition of L-carnitine uptake in hOCTN2-transfected cells. As to conditions: 10 µM carnitine with (N-methyl-3H)-carnitine tracer, Na+ buffer pH 7.4, 37 °C. The test is classed as cell-based.

In turn, `Cc1ccc(NC(=O)CCC[N+](C)(C)C)cc1C` [4j] came in with an IC50 in test [1] of 97 ± 17 µM. Regarding `C[N+](C)(C)CCCC(=O)Nc1ccc([N+](=O)[O-])cc1` [4k], the “carnitine uptake in presence of 50 μM compound” value in test [2] was “significantly inhibited by TCL substrates, including 4i, 4j, and 4k”. In addition, in test [1], the half-inhibitory concentration (IC50) was determined as 78 ± 16 µM.

In turn, `C[N+](C)(C)CCCC(=O)NCCCc1ccccc1` [4t] gave an IC50 in test [1] (200 µM GBB, 3 mM 2-oxoglutarate, 0.25 mM ferrous ammonium sulfate, 10 mM ascorbate, pH 7.0, 37 °C, 15 min preincubation) of 76 ± 13 µM.

A word on the IC50: it is the concentration at which inhibition is half-maximal. A low value points to higher potency.
